From PMC6120236 (FEBS Open Bio, 2018)
pIC50, pKd: −log10 of the molar value. Read-outs that look alike come from different tables or passages of the source.

Tests used:
[1] = target: T1, WT ITK (His6-tagged human wild-type ITK kinase domain) (Homo sapiens, UniProt Q08881); assay: SPR (Biacore, NTA capture coupling); format: binding
T1 construct: Ni-NTA, Q Sepharose, Superdex 200
T1 sequence (Q08881 357-620 limits assumed): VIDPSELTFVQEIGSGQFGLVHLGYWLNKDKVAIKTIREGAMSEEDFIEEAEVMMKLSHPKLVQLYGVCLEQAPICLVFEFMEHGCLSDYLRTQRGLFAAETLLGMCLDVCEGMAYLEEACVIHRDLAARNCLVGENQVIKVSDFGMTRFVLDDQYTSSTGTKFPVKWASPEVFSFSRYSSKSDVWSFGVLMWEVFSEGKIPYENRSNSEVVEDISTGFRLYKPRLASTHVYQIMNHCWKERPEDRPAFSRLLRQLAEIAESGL

[2] = target: T1, WT ITK (His6-tagged human wild-type ITK kinase domain); assay: ADP-Glo kinase assay; format: biochemical
Text: ADP-Glo kinase assay on WT ITK (His6-tagged human wild-type ITK kinase domain)

[3] = target: T1, WT ITK (His6-tagged human wild-type ITK kinase domain); assay: biochemical kinase inhibition assay
[4] = target: LCK (Homo sapiens, UniProt P06239); assay: DiscoveRx KINOMEscan; conditions: read-out: Percentage of control binding / J-95
LCK, sequence (P06239 2-509): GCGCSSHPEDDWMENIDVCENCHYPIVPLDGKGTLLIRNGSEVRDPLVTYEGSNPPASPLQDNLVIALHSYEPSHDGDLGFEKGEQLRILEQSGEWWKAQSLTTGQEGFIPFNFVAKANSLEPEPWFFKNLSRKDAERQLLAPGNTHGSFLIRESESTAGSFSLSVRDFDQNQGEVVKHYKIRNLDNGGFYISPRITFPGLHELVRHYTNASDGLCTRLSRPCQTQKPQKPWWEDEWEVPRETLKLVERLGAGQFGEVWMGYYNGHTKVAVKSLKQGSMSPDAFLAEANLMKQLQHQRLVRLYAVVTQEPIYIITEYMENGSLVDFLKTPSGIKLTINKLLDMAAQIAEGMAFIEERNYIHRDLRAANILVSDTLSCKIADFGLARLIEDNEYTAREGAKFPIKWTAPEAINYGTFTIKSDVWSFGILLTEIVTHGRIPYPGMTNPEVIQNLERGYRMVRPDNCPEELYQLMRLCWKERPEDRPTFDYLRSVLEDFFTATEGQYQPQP
Text: DiscoveRx KINOMEscan on LCK

[5] = target: HCK (Homo sapiens, UniProt P08631); assay: DiscoveRx KINOMEscan; conditions: read-out: Percentage of control binding / J-95
HCK, sequence (P08631 2-526): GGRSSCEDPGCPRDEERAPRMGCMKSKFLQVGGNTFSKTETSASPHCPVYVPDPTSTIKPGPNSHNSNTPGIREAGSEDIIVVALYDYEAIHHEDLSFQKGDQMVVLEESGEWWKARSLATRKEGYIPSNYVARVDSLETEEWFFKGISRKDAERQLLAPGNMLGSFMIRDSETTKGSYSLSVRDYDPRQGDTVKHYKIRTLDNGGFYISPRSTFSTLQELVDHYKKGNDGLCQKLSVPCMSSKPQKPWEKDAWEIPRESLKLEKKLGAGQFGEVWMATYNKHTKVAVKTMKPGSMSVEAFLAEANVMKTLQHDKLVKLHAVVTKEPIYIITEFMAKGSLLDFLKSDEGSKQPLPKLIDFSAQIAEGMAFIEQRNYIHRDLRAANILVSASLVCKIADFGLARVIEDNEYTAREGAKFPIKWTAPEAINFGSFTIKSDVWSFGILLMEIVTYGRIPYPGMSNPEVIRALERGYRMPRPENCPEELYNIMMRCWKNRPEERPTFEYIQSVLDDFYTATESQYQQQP
Text: DiscoveRx KINOMEscan on HCK

[6] = target: CLK1 (Homo sapiens, UniProt P49759); assay: DiscoveRx KINOMEscan; conditions: read-out: Percentage of control binding / J-31
CLK1, sequence (P49759 whole entry): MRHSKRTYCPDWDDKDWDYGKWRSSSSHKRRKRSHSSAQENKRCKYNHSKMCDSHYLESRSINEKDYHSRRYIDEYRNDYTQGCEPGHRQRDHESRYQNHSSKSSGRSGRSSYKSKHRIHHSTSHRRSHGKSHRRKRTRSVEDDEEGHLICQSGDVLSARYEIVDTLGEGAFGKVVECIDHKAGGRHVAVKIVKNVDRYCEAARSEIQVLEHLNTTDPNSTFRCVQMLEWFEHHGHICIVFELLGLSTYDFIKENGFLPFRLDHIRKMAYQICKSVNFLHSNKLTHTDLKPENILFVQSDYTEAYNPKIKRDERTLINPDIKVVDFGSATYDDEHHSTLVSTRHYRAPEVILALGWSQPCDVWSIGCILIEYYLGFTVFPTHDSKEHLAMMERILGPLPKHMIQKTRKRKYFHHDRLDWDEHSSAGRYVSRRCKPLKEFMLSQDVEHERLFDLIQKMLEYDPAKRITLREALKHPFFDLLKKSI
Text: DiscoveRx KINOMEscan on CLK1

## CC(=O)N1CCCC(n2nc(-c3cccc(C(=O)Nc4ccc(C(C)C)cc4)c3)c3c(N)ncnc32)C1 (centres unmarked) [E, Derivative of D]
[1]; read-out: K D
  pKd: 5.96
[2]
  pIC50: 6.34

## CC(C)Oc1ccc2cccc(-n3cc(NC(N)=O)c(C(N)=O)n3)c2c1 [C, Pfizer compound 9]
[1]; read-out: K D
  pKd: 7.60
[2]
  pIC50: 7.62

## CCOC(=O)/C=C1\CC(=O)Nc2cc(C)c(C)cc2N1 [J-95]
[3]
  pIC50: 5.48
[1]
  pKd: 6.00
[4]
  remaining binding at 20 µM: 29%
[5]
  remaining binding at 20 µM: 33%

## COc1cc(C)c(Sc2cnc(NC(C)=O)s2)cc1C(=O)N1CCN(C(C)=O)CC1 [B, Derivative of A]
[1]; read-out: K D
  pKd: 7.12
[2]
  pIC50: 6.59

## CCc1ccc2nc(Nc3cc(Cc4ccccc4)nc(N[C@H]4CC[C@H](O)CC4)n3)sc2c1 [G, GSK compound 13]
[1]; read-out: K D
  pKd: 8.44
[2]
  pIC50: 8.46

## COc1cc(C)c(Sc2cnc(NC(=O)c3ccc(CNC(C)C(C)(C)C)cc3)s2)cc1C(=O)N1CCN(C(C)=O)CC1 (centres unmarked) [A, BMS-509744]
[1]; read-out: K D
  pKd: 8.89
[2]
  pIC50: 8.60

## COc1ccc(OCCn2c(NC(=O)c3ccco3)nc3ccccc32)cc1 [J-31]
[3]
  pIC50: 5.26
[1]
  pKd: 5.47
[6]
  remaining binding at 50 µM: 21%
